Results from patent US20160046618A1, “Cyclopropyl Fused Thiazin-2-Amine Compounds as Beta-Secretase Inhibitors and Methods of Use” (AMGEN INC., priority 2014, published 2016).

Experiments:
human recombinant BACE1 = human recombinant BACE1 (Homo sapiens (Human), UniProt P56817); test: In vitro enzymatic BACE1 FRET assay; assay type: biochemical; details: read-out: IC50 IP (μM) BACE1 enzyme
Method in brief: (§1)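 Tris addition raises the pH to neutral to stop the reaction before fluorescence is measured at 590 nm emission with 488 nm excitation.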

[1] = test system: Aβ40 in conditioned medium of cells stably expressing Amyloid Precursor Protein (APP); test: In vitro BACE-1 cell-based assay (Aβ40 sandwich ELISA); details: read-out: IC50 IP (μM) BACE1 cell
Method in brief: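 Read-out: time-resolved fluorescence (Streptavidin-Europium) of Aβ40 captured by pAb40 and detected with biotinylated 6E10 from supernatants of APP-stable cells. Cells were exposed to compound for 24 h, 10-point dose response, top dose 100 μM or 10 μM, 0.1% DMSO. IC50 fitted to percent of control.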

Recombinant Cat D = Recombinant Cat D (Homo sapiens (Human), UniProt P07339); test: In vitro enzymatic Cathepsin D (Cat D) FRET assay; assay type: biochemical; details: read-out: IC50 IP (μM) CatD
Method in brief: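 Assay pH is 3.5 (0.05 M citrate, 5 mM CHAPS, 10% DMSO final) with Cat D from CHO cells. A 20 nM quenched peptide substrate is cleaved over one hour; the reaction is ended with Tris and read by fluorescence (ex 500, em 580 nm).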

human recombinant BACE2 = human recombinant BACE2 (Homo sapiens (Human), UniProt Q9Y5Z0); test: In vitro enzymatic BACE2 FRET assay; assay type: biochemical; details: read-out: IC50 IP (μM) BACE2 enzyme
Method in brief: as §1

human recombinant BACE1, sequence (P56817 46-501): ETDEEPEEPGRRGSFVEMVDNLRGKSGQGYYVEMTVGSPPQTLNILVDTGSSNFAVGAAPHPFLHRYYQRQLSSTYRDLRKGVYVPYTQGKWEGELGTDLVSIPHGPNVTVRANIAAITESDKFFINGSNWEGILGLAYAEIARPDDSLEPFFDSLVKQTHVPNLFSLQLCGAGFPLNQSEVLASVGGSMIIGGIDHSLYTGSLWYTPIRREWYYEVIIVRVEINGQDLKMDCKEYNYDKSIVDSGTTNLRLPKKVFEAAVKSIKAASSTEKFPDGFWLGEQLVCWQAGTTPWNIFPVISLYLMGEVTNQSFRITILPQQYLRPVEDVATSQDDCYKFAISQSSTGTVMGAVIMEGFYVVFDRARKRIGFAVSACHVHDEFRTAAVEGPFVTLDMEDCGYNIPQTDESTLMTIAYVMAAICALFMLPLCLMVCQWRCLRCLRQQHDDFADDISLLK
human recombinant BACE2, sequence (Q9Y5Z0 63-518): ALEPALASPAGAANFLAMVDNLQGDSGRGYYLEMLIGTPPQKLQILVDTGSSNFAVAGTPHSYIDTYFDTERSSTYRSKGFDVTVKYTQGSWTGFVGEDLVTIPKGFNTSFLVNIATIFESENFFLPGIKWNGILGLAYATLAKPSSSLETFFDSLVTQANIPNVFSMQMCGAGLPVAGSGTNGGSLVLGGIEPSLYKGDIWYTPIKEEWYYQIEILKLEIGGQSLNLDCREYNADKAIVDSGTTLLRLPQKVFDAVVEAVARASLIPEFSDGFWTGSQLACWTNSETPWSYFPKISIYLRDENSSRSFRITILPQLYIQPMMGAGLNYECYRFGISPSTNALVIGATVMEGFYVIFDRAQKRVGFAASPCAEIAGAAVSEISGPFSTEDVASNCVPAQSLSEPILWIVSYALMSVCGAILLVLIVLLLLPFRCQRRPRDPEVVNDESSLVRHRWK
Recombinant Cat D, sequence (P07339 65-412): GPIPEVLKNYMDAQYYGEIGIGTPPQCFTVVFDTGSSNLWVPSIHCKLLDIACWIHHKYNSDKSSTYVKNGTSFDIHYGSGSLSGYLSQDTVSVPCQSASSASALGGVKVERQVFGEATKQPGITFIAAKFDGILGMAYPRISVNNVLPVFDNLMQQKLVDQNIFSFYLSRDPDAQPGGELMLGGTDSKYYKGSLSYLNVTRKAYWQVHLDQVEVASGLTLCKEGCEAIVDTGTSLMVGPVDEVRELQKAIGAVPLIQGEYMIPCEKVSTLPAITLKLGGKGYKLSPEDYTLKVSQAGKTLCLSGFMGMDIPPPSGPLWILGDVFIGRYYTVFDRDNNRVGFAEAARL

CNC(=O)[C@]12C[C@H]1[C@@](C)(c1cc(NC(=O)c3cnc(OCC(F)(F)F)cn3)ccc1F)N=C(N)S2 [Example 973, (1S,5S,6S)-3-amino-5-(2-fluoro-5-(5-(2,2,2-trifluoroethoxy)pyrazine-2-carboxamido)phenyl)-N,5-dimethyl-2-thia-4-azabicyclo[4.1.0]hept-3-ene-1-carboxamide]
IC50 (human recombinant BACE1): 0.000404 µM
IC50 [1]: 0.00192 µM
IC50 (Recombinant Cat D): 1570 µM
IC50 (human recombinant BACE2): 0.0476 µM

CC(C)[C@H](C)NC(=O)[C@]12C[C@H]1[C@@](C)(c1cc(NC(=O)c3cnc(OCC(F)(F)F)cn3)ccc1F)N=C(N)S2 [Example 974, (1S,5S,6S)-3-amino-5-(2-fluoro-5-(5-(2,2,2-trifluoroethoxy)pyrazine-2-carboxamido)phenyl)-5-methyl-N—((S)-3-methylbutan-2-yl)-2-thia-4-azabicyclo[4.1.0]hept-3-ene-1-carboxamide]
IC50 (human recombinant BACE1): 0.00132 µM
IC50 [1]: 0.00257 µM
IC50 (Recombinant Cat D): 14.5 µM
IC50 (human recombinant BACE2): 0.014 µM

C#CCOc1cnc(C(=O)Nc2cc(F)c(F)c([C@@]3(C)N=C(N)S[C@@]4(C(=O)OC)C[C@H]43)c2)cn1 [Example 975, methyl (1S,5S,6S)-3-amino-5-(2,3-difluoro-5-(((5-(2-propyn-1-yloxy)-2-pyrazinyl)carbonyl)amino)phenyl)-5-methyl-2-thia-4-azabicyclo[4.1.0]hept-3-ene-1-carboxylate]
IC50 (human recombinant BACE1): 0.000565 µM
IC50 [1]: 0.00551 µM
IC50 (Recombinant Cat D): 212 µM
IC50 (human recombinant BACE2): 0.0562 µM

CCNC(=O)[C@]12C[C@H]1[C@@](C)(c1cc(NC(=O)c3cnc(OCC(F)(F)F)cn3)ccc1F)N=C(N)S2 [Example 977, (1S,5S,6S)-3-amino-N-ethyl-5-(2-fluoro-5-(5-(2,2,2-trifluoroethoxy)pyrazine-2-carboxamido)phenyl)-5-methyl-2-thia-4-azabicyclo[4.1.0]hept-3-ene-1-carboxamide]
IC50 (human recombinant BACE1): 0.000782 µM
IC50 [1]: 0.00439 µM
IC50 (Recombinant Cat D): 577 µM
IC50 (human recombinant BACE2): 0.0876 µM

C#C[C@H](C)Oc1cnc(C(=O)Nc2ccc(F)c([C@@]3(C)N=C(N)S[C@@]4(C(=O)NC)C[C@H]43)c2)cn1 [Example 978, (1S,5S,6S)-3-amino-5-(5-(5-((S)-but-3-yn-2-yloxy)pyrazine-2-carboxamido)-2-fluorophenyl)-N,5-dimethyl-2-thia-4-azabicyclo[4.1.0]hept-3-ene-1-carboxamide]
IC50 (human recombinant BACE1): 0.000344 µM
IC50 [1]: 0.000648 µM
IC50 (Recombinant Cat D): > 400 µM
IC50 (human recombinant BACE2): 0.0195 µM

C#CCOc1cnc2c(Nc3ccc(F)c([C@@]4(C)N=C(N)S[C@@]5(C(=O)NC)C[C@H]54)c3)nccc2n1 [Example 979, (1S,5S,6S)-3-amino-5-(2-fluoro-5-((2-(2-propyn-1-yloxy)pyrido[3,4-b]pyrazin-5-yl)amino)phenyl)-N,5-dimethyl-2-thia-4-azabicyclo[4.1.0]hept-3-ene-1-carboxamide]
IC50 (human recombinant BACE1): 0.000315 µM
IC50 [1]: 0.000859 µM
IC50 (Recombinant Cat D): > 400 µM
IC50 (human recombinant BACE2): 0.0201 µM

C#CCOc1cnc(C(=O)Nc2cc(F)c(F)c([C@@]3(C)N=C(N)S[C@@]4(CNC(=O)OC(C)(C)C)C[C@H]43)c2)cn1 [Example 980, tert-butyl(((1S,5S,6S)-3-amino-5-(2,3-difluoro-5-(5-(prop-2-yn-1-yloxy)pyrazine-2-carboxamido)phenyl)-5-methyl-2-thia-4-azabicyclo[4.1.0]hept-3-en-1-yl)methyl)carbamate]
IC50 (human recombinant BACE1): 0.000455 µM
IC50 [1]: 0.000747 µM
IC50 (Recombinant Cat D): 19.8 µM
IC50 (human recombinant BACE2): 0.013 µM

C#CCOc1cnc(C(=O)Nc2cc(F)c(F)c([C@@]3(C)N=C(N)S[C@@]4(CN)C[C@H]43)c2)cn1 [Example 981, N-(3-((1S,5S,6S)-3-amino-1-(aminomethyl)-5-methyl-2-thia-4-azabicyclo[4.1.0]hept-3-en-5-yl)-4,5-difluorophenyl)-5-(prop-2-yn-1-yloxy)pyrazine-2-carboxamide]
IC50 (human recombinant BACE1): 0.00315 µM
IC50 [1]: 0.00074 µM
IC50 (Recombinant Cat D): 106 µM
IC50 (human recombinant BACE2): 0.0575 µM

C[C@]1(c2cc(NC(=O)c3cnc(OCC(F)(F)F)cn3)ccc2F)N=C(N)S[C@@]2(C(=O)NC3CC3(F)F)C[C@H]21 (stereo partly drawn) [Example 982, (1S,5S,6S)-3-amino-N-(2,2-difluorocyclopropyl)-5-(2-fluoro-5-(5-(2,2,2-trifluoroethoxy)pyrazine-2-carboxamido)phenyl)-5-methyl-2-thia-4-azabicyclo[4.1.0]hept-3-ene-1-carboxamide]
IC50 (human recombinant BACE1): 0.000679 µM
IC50 [1]: 0.00329 µM
IC50 (Recombinant Cat D): 175 µM
IC50 (human recombinant BACE2): 0.032 µM

CC(C)(CF)NC(=O)[C@]12C[C@H]1[C@@](C)(c1cc(NC(=O)c3cnc(OCC(F)(F)F)cn3)ccc1F)N=C(N)S2 [Example 983, (1S,5S,6S)-3-amino-N-(1-fluoro-2-methylpropan-2-yl)-5-(2-fluoro-5-(5-(2,2,2-trifluoroethoxy)pyrazine-2-carboxamido)phenyl)-5-methyl-2-thia-4-azabicyclo[4.1.0]hept-3-ene-1-carboxamide]
IC50 (human recombinant BACE1): 0.00151 µM
IC50 [1]: 0.00736 µM
IC50 (Recombinant Cat D): 172 µM
IC50 (human recombinant BACE2): 0.174 µM

CON(C)C(=O)[C@]12C[C@H]1[C@@](C)(c1cc(NC(=O)c3cnc(OCC(F)(F)F)cn3)ccc1F)N=C(N)S2 [Example 984, (1S,5S,6S)-3-amino-5-(2-fluoro-5-(5-(2,2,2-trifluoroethoxy)pyrazine-2-carboxamido)phenyl)-N-methoxy-N,5-dimethyl-2-thia-4-azabicyclo[4.1.0]hept-3-ene-1-carboxamide]
IC50 (human recombinant BACE1): 0.000858 µM
IC50 [1]: 0.00125 µM
IC50 (Recombinant Cat D): 1110 µM
IC50 (human recombinant BACE2): 0.0217 µM

CNC(=O)[C@]12C[C@H]1[C@@](C)(c1cc(NC(=O)c3ccc(Cl)cn3)ccc1F)N=C(N)S2 [Example 985, (1S,5S,6S)-3-amino-5-(5-(5-chloropicolinamido)-2-fluorophenyl)-N,5-dimethyl-2-thia-4-azabicyclo[4.1.0]hept-3-ene-1-carboxamide]
IC50 (human recombinant BACE1): 0.000276 µM
IC50 [1]: 0.000709 µM
IC50 (Recombinant Cat D): 1120 µM
IC50 (human recombinant BACE2): < 0.00203 µM

CC(C)(C)NC(=O)[C@]12C[C@H]1[C@@](C)(c1cc(NC(=O)c3ccc(C#N)cn3)ccc1F)N=C(N)S2 [Example 986, (1S,5S,6S)-3-amino-N-tert-butyl-5-(5-(((5-cyano-2-pyridinyl)carbonyl)amino)-2-fluorophenyl)-5-methyl-2-thia-4-azabicyclo[4.1.0]hept-3-ene-1-carboxamide]
IC50 (human recombinant BACE1): 0.00113 µM
IC50 [1]: 0.00141 µM
IC50 (Recombinant Cat D): 172 µM
IC50 (human recombinant BACE2): 0.00598 µM

C#CCOc1cnc(C(=O)Nc2ccc(F)c([C@@]3(C)N=C(N)S[C@@]4(C(=O)NC)C[C@H]43)c2)cn1 [Example 987, (1S,5S,6S)-3-amino-5-(2-fluoro-5-(((5-(2-propyn-1-yloxy)-2-pyrazinyl)carbonyl)amino)phenyl)-N,5-dimethyl-2-thia-4-azabicyclo[4.1.0]hept-3-ene-1-carboxamide]
IC50 (human recombinant BACE1): 0.00014 µM
IC50 [1]: 0.000229 µM
IC50 (Recombinant Cat D): 49.9 µM
IC50 (human recombinant BACE2): 0.0079 µM

C#C[C@@H](C)Oc1cnc(C(=O)Nc2ccc(F)c([C@@]3(C)N=C(N)S[C@@]4(COC)C[C@H]43)c2)cn1 [Example 988]
IC50 (human recombinant BACE1): 0.0216 µM
IC50 [1]: 0.0532 µM
IC50 (Recombinant Cat D): > 400 µM
IC50 (human recombinant BACE2): 0.336 µM

C#CCOc1cnc(C(=O)Nc2cnc(OC)c([C@@]3(C)N=C(N)S[C@@]4(C(F)F)C[C@@H]34)c2)cn1 [Example 989, N-(5-((1S,5S,6S)-3-amino-1-(difluoromethyl)-5-methyl-2-thia-4-azabicyclo[4.1.0]hept-3-en-5-yl)-6-methoxy-3-pyridinyl)-5-(2-propyn-1-yloxy)-2-pyrazinecarboxamide]
IC50 (human recombinant BACE1): 0.000518 µM
IC50 [1]: 0.00067 µM
IC50 (Recombinant Cat D): 174 µM
IC50 (human recombinant BACE2): 0.0406 µM

COc1ncc(NC(=O)c2ccc(Cl)cn2)cc1[C@@]1(C)N=C(N)S[C@@]2(C(F)F)C[C@@H]12 [Example 990, N-(5-((1S,5S,6S)-3-amino-1-(difluoromethyl)-5-methyl-2-thia-4-azabicyclo[4.1.0]hept-3-en-5-yl)-6-methoxy-3-pyridinyl)-5-chloro-2-pyridinecarboxamide]
IC50 (human recombinant BACE1): 0.0208 µM
IC50 [1]: 0.026 µM
IC50 (Recombinant Cat D): 67 µM
IC50 (human recombinant BACE2): 0.00465 µM

C[C@]1(c2cc(NC(=O)c3cnc(OCC(F)(F)F)cn3)ccc2F)N=C(N)S[C@@]2(C(=O)N3CC[C@@H](F)C3)C[C@H]21 [Example 991, N-(3-((1S,5S,6S)-3-amino-1-((R)-3-fluoropyrrolidine-1-carbonyl)-5-methyl-2-thia-4-azabicyclo[4.1.0]hept-3-en-5-yl)-4-fluorophenyl)-5-(2,2,2-trifluoroethoxy)pyrazine-2-carboxamide]
IC50 (human recombinant BACE1): 0.000297 µM
IC50 [1]: 0.000265 µM
IC50 (Recombinant Cat D): 664 µM
IC50 (human recombinant BACE2): 0.0097 µM

C[C@]1(c2cc(NC(=O)c3cnc(OCC(F)(F)F)cn3)ccc2F)N=C(N)S[C@@]2(C(=O)N3CC[C@H](F)C3)C[C@H]21 [Example 992, N-(3-((1S,5S,6S)-3-amino-1-((S)-3-fluoropyrrolidine-1-carbonyl)-5-methyl-2-thia-4-azabicyclo[4.1.0]hept-3-en-5-yl)-4-fluorophenyl)-5-(2,2,2-trifluoroethoxy)pyrazine-2-carboxamide]
IC50 (human recombinant BACE1): 0.000776 µM
IC50 [1]: 0.000338 µM
IC50 (Recombinant Cat D): 954 µM
IC50 (human recombinant BACE2): 0.0125 µM
